{
  "source": "patent US20050124562A1",
  "about": "“Bis-quinazoline compounds for the treatment of bacterial infections” (priority 2003, published 2005)",
  "data": [
    {"system": "efflux mutants of P. aeruginosa", "test": "Broth microdilution MIC (NCCLS), P. aeruginosa efflux mutants", "format": "cell-based", "details": "efflux mutants of P. aeruginosa", "procedure": "(§1) Representative bis-quinazolines were tested for antibacterial activity using the […] microdilution method to determine their minimum inhibitory concentrations (MICs). All compounds were tested using standard methods in accordance with NCCLS guidelines (National Committee for Clinical Laboratory Standards. 2003. Methods for dilution antimicrobial susceptibility testing for bacteria that grow aerobically. Approved Standard M-7 A-6, NCCLS, Wayne, Pa.). The bacterial strains used in the susceptibility tests were obtained from the American Type Culture Collection (ATCC) and included resistant phenotypes such as oxacillin-resistant S. aureus (ORSA) and vancomycin-resistant enterococci (VRE). The minimum bactericidal concentrations (MBCs) were determined for selected organisms. The effect of protein binding on the antibacterial activity of representative bis-quinazolines were determined by conducting MIC tests in the presence of human serum.", "units": {"MICs": "µg/mL"}, "values": [
      {"molecule": "2-[4-Hydroxy-6-(2-morpholin-4-yl-ethoxy)-quinazolin-2-ylamino]-6,7-dimethoxy-quinazolin-4-ol trifluoroacetate salt [Example 150]", "MICs": 64},
      {"molecule": "COc1cc2nc(Nc3nc(O)c4cc([N+](=O)[O-])cc(C)c4n3)nc(C)c2cc1OC.O=C(O)C(F)(F)F", "note": "[Example 66]", "MICs": 64},
      {"molecule": "COc1cc2nc(Nc3nc(O)c4cc(OCCN5CCC(O)C5)ccc4n3)nc(C)c2cc1OC.O=C(O)C(F)(F)F", "note": "(centres unmarked) [Example 155, 2-(6,7-Dimethoxy-4-methyl-quinazolin-2-ylamino)-6-[2-(3-hydroxy-pyrrolidin-1-yl)-ethoxy]-quinazolin-4-ol trifluoroacetate salt]", "MICs": 64},
      {"molecule": "COc1cc2nc(Nc3nc(O)c4cc(OCCN5CCC(O)C5)ccc4n3)nc(C)c2cc1OC.O=C(O)C(F)(F)F", "note": "(centres unmarked) [Example 156, 2-(6,7-Dimethoxy-4-methyl-quinazolin-2-ylamino)-6-[2-(3-hydroxy-pyrrolidin-1-yl)-ethoxy]-quinazolin-4-ol trifluoroacetate salt]", "MICs": 64}
    ]},
    {"system": "S. aureus, E. faecalis, S. pyogenes and S. pneumoniae", "test": "Broth microdilution MIC (NCCLS), gram-positive strains", "format": "cell-based", "details": "range against some strains of S. aureus, E. faecalis, S. pyogenes and S. pneumoniae; read-out: MIC", "procedure": "as §1", "units": {"MIC": "µg/mL"}, "values": [
      {"molecule": "COc1cc(OC)c2nc(Nc3nc(O)c4c(OC)c(OC)ccc4n3)nc(C)c2c1.O=C(O)C(F)(F)F", "note": "[Example 134, 2-(6,8-Dimethoxy-4-methyl-quinazolin-2-ylamino)-5,6-dimethoxy-quinazolin-4-ol TFA salt]", "MIC": "0.06 to 16"},
      {"molecule": "COc1cc(OC)c2nc(Nc3nc(O)c4c(OC)c(OC)ccc4n3)nc(C)c2c1.Cl", "note": "[Example 135, 2-(6,8-Dimethoxy-4-methyl-quinazolin-2-ylamino)-5,6-dimethoxy-quinazolin-4-ol HCl salt]", "MIC": "0.06 to 16"},
      {"molecule": "COc1cc2nc(Nc3nc(O)c4cc(OCCO)ccc4n3)nc(C)c2cc1OC.O=C(O)C(F)(F)F", "note": "[Example 136, 2-(6,7-Dimethoxy-4-methyl-quinazolin-2-ylamino)-6-(2-hydroxy-ethoxy)-quinazolin-4-ol trifluoroacetate salt]", "MIC": "0.06 to 16"},
      {"molecule": "COc1cc(OC)c2nc(Nc3nc(O)c4cc(OCCO)ccc4n3)nc(C)c2c1.O=C(O)C(F)(F)F", "note": "[Example 137, 2-(6,8-Dimethoxy-4-methyl-quinazolin-2-ylamino)-6-(2-hydroxy-ethoxy)-quinazolin-4-ol trifluoroacetate salt]", "MIC": "0.06 to 16"},
      {"molecule": "COc1cc2nc(Nc3nc(O)c4cc(OCCN(C)CCO)ccc4n3)nc(C)c2cc1OC.O=C(O)C(F)(F)F", "note": "[Example 139, 2-(6,7-Dimethoxy-4-methyl-quinazolin-2-ylamino)-6-{2-[(2-hydroxy-ethyl)-methyl-amino]-ethoxy}-quinazolin-4-ol trifluoroacetate salt]", "MIC": "0.06 to 16"},
      {"molecule": "COc1cc(OC)c2nc(Nc3nc(O)c4cc(OCCN5CCOCC5)ccc4n3)nc(C)c2c1.O=C(O)C(F)(F)F", "note": "[Example 141, 2-(6,8-Dimethoxy-4-methyl-quinazolin-2-ylamino)-6-(2-morpholin-4-yl-ethoxy)-quinazolin-4-ol trifluoroacetate salt]", "MIC": "0.06 to 16"},
      {"molecule": "CCN(CCO)CCOc1ccc2nc(Nc3nc(C)c4cc(OC)cc(OC)c4n3)nc(O)c2c1.O=C(O)C(F)(F)F", "note": "[Example 167, 2-(6,8-Dimethoxy-4-methyl-quinazolin-2-ylamino)-6-{2-[ethyl-(2-hydroxy-ethyl)-amino]-ethoxy}-quinazolin-4-ol trifluoroacetate salt]", "MIC": "0.06 to 16"},
      {"molecule": "COc1cc(OC)c2nc(Nc3nc(O)c4cc(OCCN5CCCC5CO)ccc4n3)nc(C)c2c1.O=C(O)C(F)(F)F", "note": "(centres unmarked) [Example 168, 2-(6,8-Dimethoxy-4-methyl-quinazolin-2-ylamino)-6-[2-(2-hydroxymethyl-pyrrolidin-1-yl)-ethoxy]-quinazolin-4-ol trifluoroacetate salt]", "MIC": "0.06 to 16"},
      {"molecule": "COc1cc2nc(Nc3nc(O)c4cc(OCCN5CCCCC5CO)ccc4n3)nc(C)c2cc1OC.O=C(O)C(F)(F)F", "note": "(centres unmarked) [Example 173, 2-(6,7-Dimethoxy-4-methyl-quinazolin-2-ylamino)-6-[2-(2-hydroxymethyl-piperidin-1-yl)-ethoxy]-quinazolin-4-ol trifluoroacetate salt]", "MIC": "0.06 to 16"},
      {"molecule": "COc1cc2nc(Nc3nc(O)c4cc(OCCn5cnnc5)ccc4n3)nc(C)c2cc1OC.O=C(O)C(F)(F)F", "note": "[Example 174, 2-(6,7-Dimethoxy-4-methyl-quinazolin-2-ylamino)-6-(2-[1,2,4]triazol-4-yl-ethoxy)-quinazolin-4-ol trifluoroacetate salt]", "MIC": "0.06 to 16"},
      {"molecule": "COc1cc2nc(Nc3nc(O)c4cc(OCCN5CCN(CCO)CC5)ccc4n3)nc(C)c2cc1OC.O=C(O)C(F)(F)F", "note": "[Example 175, 2-(6,7-Dimethoxy-4-methyl-quinazolin-2-ylamino)-6-{2-[4-(2-hydroxy-ethyl)-piperazin-1-yl]-ethoxy}-quinazolin-4-ol trifluoroacetate salt]", "MIC": "0.06 to 16"},
      {"molecule": "COc1cc2nc(Nc3nc(O)c4cc(OCCNNCCO)ccc4n3)nc(C)c2cc1OC.O=C(O)C(F)(F)F", "note": "[Example 176, 2-(6,7-Dimethoxy-4-methyl-quinazolin-2-ylamino)-6-{2-[N′-(2-hydroxy-ethyl)-hydrazino]-ethoxy}-quinazolin-4-ol trifluoroacetate salt]", "MIC": "0.06 to 16"},
      {"molecule": "COc1cc2nc(Nc3nc(O)c4cc(OCCN5CC(C)OC(C)C5)ccc4n3)nc(C)c2cc1OC.O=C(O)C(F)(F)F", "note": "(centres unmarked) [Example 177, 2-(6,7-Dimethoxy-4-methyl-quinazolin-2-ylamino)-6-[2-(2,6-dimethyl-morpholin-4-yl)-ethoxy]-quinazolin-4-ol trifluoroacetate salt]", "MIC": "0.06 to 16"},
      {"molecule": "COc1cc2nc(Nc3nc(O)c4cc(OCCNCCOCCO)ccc4n3)nc(C)c2cc1OC.O=C(O)C(F)(F)F", "note": "[Example 179, 2-(6,7-Dimethoxy-4-methyl-quinazolin-2-ylamino)-6-{2-[2-(2-hydroxy-ethoxy)-ethylamino]-ethoxy}-quinazolin-4-ol trifluoroacetate salt]", "MIC": "0.06 to 16"},
      {"molecule": "COc1cc2nc(Nc3nc(O)c4cc(OCCN5CCCC5CN5CCCC5)ccc4n3)nc(C)c2cc1OC.O=C(O)C(F)(F)F", "note": "(centres unmarked) [Example 180, 2-(6,7-Dimethoxy-4-methyl-quinazolin-2-ylamino)-6-[2-(2-pyrrolidin-1-ylmethyl-pyrrolidin-1-yl)-ethoxy]-quinazolin-4-ol trifluoroacetate salt]", "MIC": "0.06 to 16"},
      {"molecule": "COc1cc2nc(Nc3nc(O)c4cc(OCCNC5CCCCC5O)ccc4n3)nc(C)c2cc1OC.O=C(O)C(F)(F)F", "note": "(centres unmarked) [Example 181, 2-(6,7-Dimethoxy-4-methyl-quinazolin-2-ylamino)-6-[2-(2-hydroxy-cyclohexylamino)-ethoxy]-quinazolin-4-ol trifluoroacetate salt]", "MIC": "0.06 to 16"},
      {"molecule": "COc1cc2nc(Nc3nc(O)c4cc(OCCN(C)Cc5cccnc5)ccc4n3)nc(C)c2cc1OC.O=C(O)C(F)(F)F", "note": "[Example 182, 2-(6,7-Dimethoxy-4-methyl-quinazolin-2-ylamino)-6-[2-(methyl-pyridin-3-ylmethyl-amino)-ethoxy]-quinazolin-4-ol trifluoroacetate salt]", "MIC": "0.06 to 16"},
      {"molecule": "COc1cc2nc(Nc3nc(O)c4cc(OCCNCCc5ccncc5)ccc4n3)nc(C)c2cc1OC.O=C(O)C(F)(F)F", "note": "[Example 183, 2-(6,7-Dimethoxy-4-methyl-quinazolin-2-ylamino)-6-[2-(2-pyridin-4-yl-ethylamino)-ethoxy]-quinazolin-4-ol TFA salt]", "MIC": "0.06 to 16"},
      {"molecule": "COc1cc2nc(Nc3nc(O)c4cc(OCCN(C)Cc5ccncc5)ccc4n3)nc(C)c2cc1OC.O=C(O)C(F)(F)F", "note": "[Example 184, 2-(6,7-Dimethoxy-4-methyl-quinazolin-2-ylamino)-6-[2-(methyl-pyridin-4-ylmethyl-amino)-ethoxy]-quinazolin-4-ol TFA salt]", "MIC": "0.06 to 16"}
    ]}
  ]
}
